According to US20150099774A1, “Pyrido [3,4-C] [1,9] phenanthroline and 11, 12 dihydropyrido [3,4-C] [1,9] phenanthroline derivatives and the use thereof, particularly for treating cancer” (CHRISTIAN-ALBRECHTS-UNIVERSITAET ZU KIEL, priority 2012, published 2015):

How the values were obtained:
Type in all cases: cell-based, human
M14 = assay: NCI in vitro anti-tumor screening, 1 μM, SRB; settings: c = 1 μM; M14 (Melanoma); two days
BT-549 = assay: NCI in vitro anti-tumor screening, 1 μM, SRB; settings: c = 1 μM; BT-549 (Breast cancer); two days
T-47D = assay: NCI in vitro anti-tumor screening, 1 μM, SRB; settings: c = 1 μM; T-47D (Breast cancer); two days
MCF7 = assay: NCI in vitro anti-tumor screening, 1 μM, SRB; settings: c = 1 μM; MCF7 (Breast cancer); two days
MALME-3M = assay: NCI in vitro anti-tumor screening, 1 μM, SRB; settings: c = 1 μM; MALME-3M (Melanoma); two days
SK-MEL-5 = assay: NCI in vitro anti-tumor screening, 1 μM, SRB; settings: c = 1 μM; SK-MEL-5 (Melanoma); two days
Leukemia cell lines = assay: NCI in vitro anti-tumor screening, 1 μM, mean of leukemia lines; settings: c = 1 μM
SK-MEL-28 = assay: NCI in vitro anti-tumor screening, 1 μM, SRB; settings: c = 1 μM; SK-MEL-28 (Melanoma); two days
MOLT-4 = assay: NCI in vitro anti-tumor screening, 1 μM, SRB; settings: c = 1 μM; MOLT-4 (Leukemia); two days
UACC-257 = assay: NCI in vitro anti-tumor screening, 1 μM, SRB; settings: c = 1 μM; UACC-257 (Melanoma); two days
HL-60(TB) = assay: NCI in vitro anti-tumor screening, 1 μM, SRB; settings: c = 1 μM; HL-60(TB) (Leukemia); two days
MDA-MB-231/ATCC = assay: NCI in vitro anti-tumor screening, 1 μM, SRB; settings: c = 1 μM; MDA-MB-231/ATCC (Breast cancer); two days
RPMI-8226 = assay: NCI in vitro anti-tumor screening, 1 μM, SRB; settings: c = 1 μM; RPMI-8226 (Leukemia); two days
MDA-MB-435 = assay: NCI in vitro anti-tumor screening, 1 μM, SRB; settings: c = 1 μM; MDA-MB-435 (Melanoma); two days
Breast cancer cell lines = assay: NCI in vitro anti-tumor screening, 1 μM, mean of breast cancer lines; settings: c = 1 μM
MDA-MB-468 = assay: NCI in vitro anti-tumor screening, 1 μM, SRB; settings: c = 1 μM; MDA-MB-468 (Breast cancer); two days
K-562 = assay: NCI in vitro anti-tumor screening, 1 μM, SRB; settings: c = 1 μM; K-562 (Leukemia); two days
SK-MEL-2 = assay: NCI in vitro anti-tumor screening, 1 μM, SRB; settings: c = 1 μM; SK-MEL-2 (Melanoma); two days
LOX IMVI = assay: NCI in vitro anti-tumor screening, 1 μM, SRB; settings: c = 1 μM; LOX IMVI (Melanoma); two days
60 tumor cell lines [1] = assay: NCI in vitro anti-tumor screening, 1 μM, all 60 cell lines; settings: c = 1 μM; for growth inhibitory effect (in words): leukemia, melanoma, breast cancer lines of Tables I and II
UACC-62 = assay: NCI in vitro anti-tumor screening, 1 μM, SRB; settings: c = 1 μM; UACC-62 (Melanoma); two days
Melanoma cell lines = assay: NCI in vitro anti-tumor screening, 1 μM, mean of melanoma lines; settings: c = 1 μM
HS-578T = assay: NCI in vitro anti-tumor screening, 1 μM, SRB; settings: c = 1 μM; HS-578T (Breast cancer); two days
CCRF-CEM = assay: NCI in vitro anti-tumor screening, 1 μM, SRB; settings: c = 1 μM; CCRF-CEM (Leukemia); two days
SR = assay: NCI in vitro anti-tumor screening, 1 μM, SRB; settings: c = 1 μM; SR (Leukemia); two days
60 tumor cell lines [2] = assay: NCI 5 dose assay, dose-response (GI50, MG_MID); settings: for GI50: Homo sapiens, calculated from mean graph midpoint; for GI50 / MG_MID (mean-graph midpoint, mean of the logarithms GI50 values): all 60 cell lines; for MG_MID (mean-graph midpoint, mean of the logarithms GI50 values): 5 concentrations
Excerpt: It has been shown in the experiments carried out according to the present invention that the above-described phenanthroline derivates have antitumoral properties. Due to their structural similarity it is to be assumed that they have also antimicrobial, antifungal, antiviral and anti-inflammatory properties like the benzo[c]phenanthridines. For investigating the pharmacological properties the compounds of general formulas I and II, as well as compounds of the substance class III were investigated in an “in vitro anti-tumor screening” of the National Cancer Institute (NCI), Bethesda, Md., USA. 60 different human pathogenic tumor cell lines were tested, which originate from nine cancer types (leukemia, non-small cell lung carcinoma, colon cancer, CNS cancer, melanoma, ovarian cancer, renal cancer, prostate cancer, breast cancer). For determining the efficacy, the tumor cells are exposed to the compounds for two days and thereafter the growth inhibition is indirectly determined through the determination of the protein biomass with sulforhodamine B (SRB). Untreated cultures serve as reference.
Furthermore, it can be seen from tables I and II that the here tested phenanthrolin derivatives according to the present invention have selectivities for certain tumor types. The most marked growth inhibitory effect is for tumor cells of leukemia. Furthermore, a degree of selectivity for tumor cells of melanoma and mamma carcinoma (breast cancer) can be seen. […] The GI50 (growth inhibition 50%) describes here the concentration of the test substance required for inhibiting cell growth by 50%. […] Develop. Res., 34, (1995) 91-109,]
Exemplary for 6-amino-11-(3-bromophenyl)-11,12-dihydropyrido[3,4-c][1,9] phenanthrol are the dose-response curves shown in FIGS. 1 to 9. The nine different Figures include the various types of cancer. The percentage of growth, depending on the concentration of the compound is plotted (as log10 of the molar concentrations). The individual curves for each type of cancer are different cell lines of this type of cancer, which appear as legends in their usual abbreviations. Horizontal lines in the Figures denote percent growth +100, +50, 0, −50, −100. 100% growth means e.g. no difference to growth after two days without added substance.

SMILES	Percentage cell growth (M14) [%]	Percentage cell growth (BT-549) [%]	Percentage cell growth (T-47D) [%]	Percentage cell growth (MCF7) [%]	Percentage cell growth (MALME-3M) [%]	Percentage cell growth (SK-MEL-5) [%]	Percentage cell growth, Arithmetic mean (Leukemia cell lines) [%]	Percentage cell growth (SK-MEL-28) [%]	Percentage cell growth (MOLT-4) [%]	Percentage cell growth (UACC-257) [%]	Percentage cell growth (HL-60(TB)) [%]	Percentage cell growth (RPMI-8226) [%]	Percentage cell growth, Arithmetic mean (Breast cancer cell lines) [%]	Percentage cell growth (MDA-MB-468) [%]	Percentage cell growth (K-562) [%]	Percentage cell growth (SK-MEL-2) [%]	Percentage cell growth (LOX IMVI) [%]	Percentage cell growth, Arithmetic mean of all 60 cell lines (60 tumor cell lines [1]) [%]	GI50 (60 tumor cell lines [2]) [µM]	MG_MID (mean-graph midpoint, mean of the logarithms GI50 values) (60 tumor cell lines [2])	also measured
Nc1nc2c(c3ccncc13)C(c1ccc(Br)cc1)Cc1ccncc1-2 (centres unmarked)	93.4	67.8	84.6	83.4	98.2	86.2	73.8	112.5	75.3	107.8	70.3	64.7	80.8	87.6	84.9	94.1	95.7	90.5	–	–	Percentage cell growth (MDA-MB-231/ATCC): 80.6%; Percentage cell growth (MDA-MB-435): 107%; Percentage cell growth (UACC-62): 81.7%; Percentage cell growth, Arithmetic mean (Melanoma cell lines): 97.4%
COc1cccc(-c2cc3ccncc3c3nc(N)c4cnccc4c23)c1OC	94.8	95.0	97.4	89.9	123.8	86.3	92.1	119.5	90.1	126.3	118.7	96.8	90.9	81.5	88.8	117.3	89.3	98.0	–	–	Percentage cell growth (HS-578T): 90.5%; Percentage cell growth (MDA-MB-231/ATCC): 90.8%; Percentage cell growth (CCRF-CEM): 74.9%; Percentage cell growth (SR): 83.5%; growth inhibitory effect (in words) (60 tumor cell lines [1]): disadvantageous; Percentage cell growth (UACC-62): 99.1%; Percentage cell growth, Arithmetic mean (Melanoma cell lines): 95.2%
COc1cc(-c2cc3ccncc3c3nc(N)c4cnccc4c23)cc(OC)c1OC	9.5	8.31	36	22.8	35.5	2.2	12.3	41.5	−8.9	30.9	−0.9	33.5	8.2	−23.6	29.9	65.3	−30.4	16.8	–	–	Percentage cell growth (HS-578T): −2.5%; Percentage cell growth (CCRF-CEM): 7.2%; Percentage cell growth (SR): 13.1%; growth inhibitory effect (in words) (60 tumor cell lines [1]): best results; Percentage cell growth, Arithmetic mean (Melanoma cell lines): 22.1%
Nc1nc2c3cnccc3cc(-c3ccco3)c2c2ccncc12	37.0	16.2	48.4	25.0	59.7	20.0	24.6	42.4	−0.9	69.8	13.9	62.7	40.0	35.6	51.6	91.8	2.3	39.1	–	–	Percentage cell growth (MDA-MB-231/ATCC): 74.9%; Percentage cell growth (CCRF-CEM): 12.4%; Percentage cell growth (SR): 7.8%; growth inhibitory effect (in words) (60 tumor cell lines [1]): good cytotoxic effects; Percentage cell growth (UACC-62): 41.0%; Percentage cell growth, Arithmetic mean (Melanoma cell lines): 45.5%
COc1cc2c(ccc3c4cc(OC)c(OC)cc4c[n+](C)c23)cc1O [Fagaronine, reference compound]	–	–	–	–	–	–	–	–	–	–	–	–	–	–	–	–	–	–	9.48	−5.00	–
Nc1cc2c(c3cnccc13)NCc1cnccc1-2 [P4, 6-amino-11,12-dihydropyrido[3,4-c][1,9]phenanthroline]	–	–	–	–	–	–	–	–	–	–	–	–	–	–	–	–	–	–	8.13	−5.09	–
Nc1cc2c(c3cnccc13)N(c1cccc(Br)c1)Cc1cnccc1-2 [P5, 6-amino-11-(3-bromophenyl)-11,12-dihydro-pyrido-[3,4-c][1,9]phenanthroline]	–	–	–	–	–	–	–	–	–	–	–	–	–	–	–	–	–	–	2.69	−5.57	percent growth versus concentration (dose-response curves, FIGS. 1 to 9) (60 tumor cell lines [2]; nine cancer types, 5 dose assay): with increasing concentrations of the substance, the percent growth decreases
O=C1CC2=C(c3cnccc31)N(c1cccc(Br)c1)Cc1cnccc12 [P5-O, 11-(3-bromophenyl)-6-oxo-5,6,11,12-tetrahydropyrido[3,4-c][1,9]phenanthroline]	–	–	–	–	–	–	–	–	–	–	–	–	–	–	–	–	–	–	8.51	−5.07	–
Nc1cc2c(c3cnccc13)N(c1cccc(Cl)c1)Cc1cnccc1-2 [P16, 6-amino-11-(3-chlorophenyl)-11,12 dihydropyrido-[3,4-c][1,9]phenanthroline]	–	–	–	–	–	–	–	–	–	–	–	–	–	–	–	–	–	–	3.8	−5.42	–
Nc1cc2c(c3cnccc13)N(c1ccc(Cl)c(Cl)c1)Cc1cnccc1-2 [P26, 6-amino-11-(3,4-di-chlorophenyl)-11,12-dihydropyrido-[3,4-c][1,9]phenanthroline]	–	–	–	–	–	–	–	–	–	–	–	–	–	–	–	–	–	–	6.02	−5.22	–
